ChEMBL document CHEMBL1201862, “PubChem BioAssay data set” (2004)
One block for each compound: values may come before it. The source made the active and inactive calls.

How the values were obtained:
[1] = target: Arf-GAP with SH3 domain, ANK repeat and PH domain-containing protein 1 (Homo sapiens, UniProt Q9ULH1); format: functional;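 also: biochemical fluorescence polarization dose–response screen measuring inhibition of ASAP1; ASAP1 GAP domain stimulating GTP hydrolysis by truncated human ARF1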
[2] = target: ATP-dependent translocase ABCB1 (Homo sapiens, UniProt P08183); test: inhibition of P-gp mediated JC-1 efflux – Jurkat-DNR cells, flow cytometry, dose response (AID 1689); format: functional
[3] = target: Broad substrate specificity ATP-binding cassette transporter ABCG2 (Homo sapiens, UniProt Q9UNQ0); test: blockers of JC-1 export by ABCG2 – Ig-MXP3 cells, flow cytometry, dose response (AID 1690); format: functional
[4] = target: T1, Rac GTPase-activating protein 1 (Homo sapiens, UniProt Q9H0H5); test: blockers of MgcRacGAP-driven Rac1 GTP hydrolysis – biochemical, ADP Hunter fluorescence, primary and confirmatory, confirmation (AID 624330); format: functional
T1 sequence (Q9H0H5 whole entry): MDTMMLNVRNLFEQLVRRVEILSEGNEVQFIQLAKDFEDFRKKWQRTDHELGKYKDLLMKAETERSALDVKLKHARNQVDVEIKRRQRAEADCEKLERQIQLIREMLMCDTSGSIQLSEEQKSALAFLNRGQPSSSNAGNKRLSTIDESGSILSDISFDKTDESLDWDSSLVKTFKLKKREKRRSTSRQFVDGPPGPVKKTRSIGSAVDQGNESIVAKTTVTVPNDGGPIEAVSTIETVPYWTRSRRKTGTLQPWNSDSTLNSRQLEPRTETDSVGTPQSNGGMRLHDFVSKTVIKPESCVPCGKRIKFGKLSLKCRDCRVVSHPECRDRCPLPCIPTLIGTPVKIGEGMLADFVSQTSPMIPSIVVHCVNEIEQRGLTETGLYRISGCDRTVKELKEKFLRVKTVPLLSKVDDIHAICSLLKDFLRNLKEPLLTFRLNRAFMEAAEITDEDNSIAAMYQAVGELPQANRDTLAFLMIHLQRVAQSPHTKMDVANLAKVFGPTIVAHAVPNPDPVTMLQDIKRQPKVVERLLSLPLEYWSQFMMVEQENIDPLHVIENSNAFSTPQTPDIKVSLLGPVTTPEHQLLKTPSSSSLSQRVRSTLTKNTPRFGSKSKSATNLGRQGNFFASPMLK

[5] = target: T2, Sentrin-specific protease 8 (Homo sapiens, UniProt Q96LD8); format: functional
T2 sequence (Q96LD8 whole entry): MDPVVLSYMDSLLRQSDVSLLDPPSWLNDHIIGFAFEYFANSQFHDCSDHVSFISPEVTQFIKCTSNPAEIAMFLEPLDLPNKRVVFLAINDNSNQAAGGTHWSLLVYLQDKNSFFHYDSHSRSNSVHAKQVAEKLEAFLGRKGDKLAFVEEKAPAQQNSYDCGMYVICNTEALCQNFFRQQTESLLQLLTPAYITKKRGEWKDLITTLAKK

[6] = target: T2, Sentrin-specific protease 8; format: functional; remark: listed apart in the source
[7] = target: T3, Sentrin-specific protease 1 (Homo sapiens, UniProt Q9P0U3); test: SENP1 catalytic domain blockers, concentration series – biochemical, kinetic FRET, dose response (AID 651697); format: functional; settings: read-out: IC50_Mean
[8] = target: T3, Sentrin-specific protease 1; test: Dose response confirmation of small molecule inhibitors of the catalytic domain of the SUMO protease, SENP1 in a FRET assay.; format: functional; settings: read-out: IC50_Mean
[9] = tested on: A549; test: viability loss in A549 cells – cell-based, plate reader, cherry-pick samples, cytotoxicity control, dose response (AID 687028); format: functional; settings: Homo sapiens
[10] = target: T4, Scavenger receptor class B member 1 (Mus musculus, UniProt Q61009); test: mouse SR-BI DiI-HDL transfer blockers – ldlA[mSR-BI] CHO cells, fluorescence plate reader, dry powder, set 9, dose response (AID 623880); format: functional, cell-based
T4 sequence (Q61009 whole entry): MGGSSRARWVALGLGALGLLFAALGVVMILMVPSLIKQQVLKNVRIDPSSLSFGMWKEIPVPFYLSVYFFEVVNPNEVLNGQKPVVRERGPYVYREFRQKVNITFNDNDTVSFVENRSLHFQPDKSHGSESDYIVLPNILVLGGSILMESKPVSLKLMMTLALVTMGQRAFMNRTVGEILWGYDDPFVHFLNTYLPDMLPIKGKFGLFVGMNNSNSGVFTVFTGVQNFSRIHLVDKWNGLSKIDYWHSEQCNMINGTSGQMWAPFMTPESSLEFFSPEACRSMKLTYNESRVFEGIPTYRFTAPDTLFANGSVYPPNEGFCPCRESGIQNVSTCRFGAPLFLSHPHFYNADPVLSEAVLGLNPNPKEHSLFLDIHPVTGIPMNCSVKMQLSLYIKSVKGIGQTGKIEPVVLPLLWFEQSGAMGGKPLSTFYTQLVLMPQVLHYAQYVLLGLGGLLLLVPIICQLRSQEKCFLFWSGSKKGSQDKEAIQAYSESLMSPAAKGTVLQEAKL

[11] = target: T4, Scavenger receptor class B member 1; test: blockers of DiI-HDL lipid transfer via SR-BI – cell-based, ldlA[mSR-BI] CHO, DiI fluorescence, dry powder, set 10, dose response (AID 624029); format: functional

T3 sequence (Q9P0U3 whole entry, the tested form may be a part): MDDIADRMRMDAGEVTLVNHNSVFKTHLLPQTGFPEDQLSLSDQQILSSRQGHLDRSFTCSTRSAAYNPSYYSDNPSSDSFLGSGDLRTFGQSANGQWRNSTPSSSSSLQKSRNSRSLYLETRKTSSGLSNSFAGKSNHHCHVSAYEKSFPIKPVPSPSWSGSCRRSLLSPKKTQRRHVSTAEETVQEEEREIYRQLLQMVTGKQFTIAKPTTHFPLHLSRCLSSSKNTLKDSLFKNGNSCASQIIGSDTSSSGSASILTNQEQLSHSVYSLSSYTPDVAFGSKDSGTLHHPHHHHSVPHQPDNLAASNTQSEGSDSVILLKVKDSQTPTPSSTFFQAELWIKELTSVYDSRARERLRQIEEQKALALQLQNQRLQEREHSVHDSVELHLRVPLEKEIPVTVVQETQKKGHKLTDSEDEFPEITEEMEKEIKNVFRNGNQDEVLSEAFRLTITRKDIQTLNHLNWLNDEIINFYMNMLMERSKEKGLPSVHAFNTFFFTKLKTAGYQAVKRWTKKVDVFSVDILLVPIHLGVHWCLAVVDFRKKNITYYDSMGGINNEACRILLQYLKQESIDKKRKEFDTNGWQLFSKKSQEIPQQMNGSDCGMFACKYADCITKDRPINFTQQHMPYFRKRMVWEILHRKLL
Chain of Broad substrate specificity ATP-binding cassette transporter ABCG2 (Q9UNQ0 whole entry): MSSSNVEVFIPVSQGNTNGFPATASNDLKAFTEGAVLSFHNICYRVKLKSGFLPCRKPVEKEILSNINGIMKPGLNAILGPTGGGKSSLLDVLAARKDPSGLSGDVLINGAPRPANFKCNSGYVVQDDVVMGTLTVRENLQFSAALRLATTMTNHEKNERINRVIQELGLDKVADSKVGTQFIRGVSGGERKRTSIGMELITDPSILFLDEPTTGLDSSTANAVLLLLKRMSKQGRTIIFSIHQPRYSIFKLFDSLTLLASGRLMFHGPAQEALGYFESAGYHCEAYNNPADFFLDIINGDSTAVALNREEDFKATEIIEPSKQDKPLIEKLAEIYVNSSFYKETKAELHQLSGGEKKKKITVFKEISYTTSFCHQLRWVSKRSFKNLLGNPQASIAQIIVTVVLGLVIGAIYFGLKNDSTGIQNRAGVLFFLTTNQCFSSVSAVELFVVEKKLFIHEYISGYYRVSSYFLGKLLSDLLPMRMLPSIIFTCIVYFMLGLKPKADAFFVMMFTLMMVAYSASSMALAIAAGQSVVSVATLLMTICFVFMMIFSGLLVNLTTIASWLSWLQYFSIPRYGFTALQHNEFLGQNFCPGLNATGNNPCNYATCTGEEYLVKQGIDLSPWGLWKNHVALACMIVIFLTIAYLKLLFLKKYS
Chain of ATP-dependent translocase ABCB1 (P08183 whole entry): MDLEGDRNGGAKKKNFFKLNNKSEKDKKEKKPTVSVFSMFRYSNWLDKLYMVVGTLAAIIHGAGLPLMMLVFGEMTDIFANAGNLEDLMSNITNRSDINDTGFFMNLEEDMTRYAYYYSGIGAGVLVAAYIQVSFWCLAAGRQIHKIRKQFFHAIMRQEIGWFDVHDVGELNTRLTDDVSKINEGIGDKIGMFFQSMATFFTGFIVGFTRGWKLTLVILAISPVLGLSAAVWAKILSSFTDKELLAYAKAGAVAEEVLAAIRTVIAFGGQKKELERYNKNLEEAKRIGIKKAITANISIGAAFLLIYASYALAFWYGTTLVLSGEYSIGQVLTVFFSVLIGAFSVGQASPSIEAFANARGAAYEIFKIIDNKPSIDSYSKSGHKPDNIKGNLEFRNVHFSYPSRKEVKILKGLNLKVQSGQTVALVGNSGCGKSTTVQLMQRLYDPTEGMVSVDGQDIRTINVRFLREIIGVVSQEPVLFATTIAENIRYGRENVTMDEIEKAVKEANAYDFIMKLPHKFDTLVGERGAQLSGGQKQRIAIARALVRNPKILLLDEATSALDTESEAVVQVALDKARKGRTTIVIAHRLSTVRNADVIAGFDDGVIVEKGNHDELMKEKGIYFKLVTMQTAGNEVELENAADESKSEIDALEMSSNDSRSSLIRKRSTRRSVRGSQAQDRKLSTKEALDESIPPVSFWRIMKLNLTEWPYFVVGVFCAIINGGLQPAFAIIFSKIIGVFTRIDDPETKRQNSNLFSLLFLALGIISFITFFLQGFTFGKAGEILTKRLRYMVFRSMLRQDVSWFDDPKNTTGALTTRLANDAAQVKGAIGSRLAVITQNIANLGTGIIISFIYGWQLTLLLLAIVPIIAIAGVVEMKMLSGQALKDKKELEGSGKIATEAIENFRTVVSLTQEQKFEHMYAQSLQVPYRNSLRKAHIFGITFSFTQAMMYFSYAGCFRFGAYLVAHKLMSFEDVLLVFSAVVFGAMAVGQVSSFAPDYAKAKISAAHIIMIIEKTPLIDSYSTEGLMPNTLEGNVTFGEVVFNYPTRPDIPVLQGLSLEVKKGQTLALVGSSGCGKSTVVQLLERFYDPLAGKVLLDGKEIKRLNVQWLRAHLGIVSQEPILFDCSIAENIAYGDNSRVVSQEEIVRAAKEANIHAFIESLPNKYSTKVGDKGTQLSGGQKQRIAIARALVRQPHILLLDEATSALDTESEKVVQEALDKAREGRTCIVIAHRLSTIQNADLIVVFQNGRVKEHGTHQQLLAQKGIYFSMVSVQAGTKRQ
Chain of Arf-GAP with SH3 domain, ANK repeat and PH domain-containing protein 1 (Q9ULH1 whole entry, the tested form may be a part): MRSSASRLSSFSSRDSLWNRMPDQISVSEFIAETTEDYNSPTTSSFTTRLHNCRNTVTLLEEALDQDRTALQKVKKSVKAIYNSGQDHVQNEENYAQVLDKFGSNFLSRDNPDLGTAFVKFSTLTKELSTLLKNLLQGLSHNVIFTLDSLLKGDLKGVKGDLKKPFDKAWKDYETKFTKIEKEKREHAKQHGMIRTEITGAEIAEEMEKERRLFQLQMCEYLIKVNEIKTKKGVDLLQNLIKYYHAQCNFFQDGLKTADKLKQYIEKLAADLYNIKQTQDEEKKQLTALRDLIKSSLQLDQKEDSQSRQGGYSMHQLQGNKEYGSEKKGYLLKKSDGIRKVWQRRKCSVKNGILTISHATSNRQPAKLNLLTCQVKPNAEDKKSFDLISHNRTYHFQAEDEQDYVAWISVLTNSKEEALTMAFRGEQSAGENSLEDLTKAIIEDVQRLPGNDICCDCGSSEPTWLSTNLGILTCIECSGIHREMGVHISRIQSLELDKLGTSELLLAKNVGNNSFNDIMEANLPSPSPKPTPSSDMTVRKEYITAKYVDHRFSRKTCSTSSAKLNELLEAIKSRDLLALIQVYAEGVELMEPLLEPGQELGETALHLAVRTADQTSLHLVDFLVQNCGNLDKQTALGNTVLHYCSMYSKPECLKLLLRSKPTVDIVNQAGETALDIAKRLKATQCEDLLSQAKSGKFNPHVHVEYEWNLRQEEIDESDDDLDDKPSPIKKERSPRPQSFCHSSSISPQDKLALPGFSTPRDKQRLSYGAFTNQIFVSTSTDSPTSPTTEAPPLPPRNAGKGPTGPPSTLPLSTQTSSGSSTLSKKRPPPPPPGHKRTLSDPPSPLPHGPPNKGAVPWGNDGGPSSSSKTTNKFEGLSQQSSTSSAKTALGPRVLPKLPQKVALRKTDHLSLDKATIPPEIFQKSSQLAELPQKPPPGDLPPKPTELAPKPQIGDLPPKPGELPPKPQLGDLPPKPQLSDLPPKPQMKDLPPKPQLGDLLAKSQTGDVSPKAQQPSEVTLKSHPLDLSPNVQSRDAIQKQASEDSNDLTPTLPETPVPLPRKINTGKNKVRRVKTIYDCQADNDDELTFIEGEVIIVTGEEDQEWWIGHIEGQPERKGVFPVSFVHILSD

SMILES: COc1cc(C(=O)N/N=C/c2ccc(OC)c(CN3CCN(c4ccc(F)cc4)CC3)c2)ccc1O
EC50 [2]: 0.165 µM (active)
EC50 [3]: 0.76 µM (inactive)
IC50 [4]: 83.3 µM (active)

SMILES: COc1ccc(S(=O)(=O)Oc2ccc3cccc(N)c3c2)cc1
IC50 [5]: 9.11 µM (active)
IC50 [6]: 19.6 µM (active)

SMILES: COc1ccc2c3c([nH]c2c1)[C@H](CO)N(C(=O)c1ccccc1)CC31CN(S(=O)(=O)c2cccs2)C1
AC50 [9]: 26 µM (active)

Results, then the compound that gave them:

IC50 [1]: 11.8 µM (inactive)
SMILES: COc1ccc(-n2nnc3c(=O)n(CC(=O)Nc4ccc5c(c4)OCCO5)cnc32)cc1OC

IC50 [7]: 12 µM (active)
IC50 [8]: 16.4 µM (active)
SMILES: O=C(NC[C@@H]1CCCO1)c1cccc2c1C(=O)c1ccc(N3CCOCC3)cc1S2(=O)=O

AC50 [10]: 0.176 µM (active)
AC50 [11]: 0.202 µM (active)
SMILES: C[C@@H]1CN([C@H](C)CO)C(=O)c2cc(NC(=O)C3CCCCC3)ccc2O[C@H]1CN(C)S(=O)(=O)c1ccccc1Cl
